Laboratory results reported in patent US20120122843A1, “Compounds and Their Use for Treatment of Amyloid Beta-Related Diseases” (ASTRAZENECA AB, priority 2010, published 2012).

Assays:
[1] = test system: Notch; test: Release and translocation of Notch intracellular domain into the nucleus, HEK/AENotch cells (NICD immunostaining, ImageXpress); type: cell-based, Human; conditions: 3 μM Lactacystin, 4-6 h incubation, nucleus/cytosol NICD fluorescence ratio
How it was run: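 HEK cells overexpressing a Notch1-ΔE-myc construct were plated for 15–24 h, then treated 4–6 h with compound (typically up to 25 μM, 0.5% DMSO) plus 3 μM Lactacystin. Fixed cells were immunostained for NICD, and the nuclear/cytosolic fluorescence ratio was imaged. Cytotoxicity was judged by nucleus area or cell number.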

[2] = test system: Aβ42; test: Aβ42 release from HEK cells stably expressing APPswe (MSD electrochemiluminescence); type: cell-based, Human; conditions: 4-6 h incubation with test compound, Aβ42 secreted to cell medium
How it was run: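 HEK cells stably expressing APPswe, plated 15–24 h, then given compound in fresh medium (diluted ×200 from compound plate) for 4–6 h at 37 °C. Secreted Aβ in medium measured by MSD electrochemiluminescence; total Aβ via 6E10 plus 4G8 antibodies, Aβ42 via specific antibody. Cytotoxicity checked by ATP content of lysate.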

[3] = test system: Aβtotal; test: Total Aβ release from HEK cells stably expressing APPswe (MSD, 6E10 and 4G8 antibodies); type: cell-based; conditions: Homo sapiens, HEK293, 4-6 h incubation with test compound, total Aβ secreted to cell medium
Protocol: The level of activity of the compounds on Aβ formation was tested using the following method:
Compounds were diluted in 100% DMSO and stored at […] prior to use. Human Embryonic Kidney (HEK) cell line stably expressing APP with the Swedish mutation (APPswe) were cultured using Dulbecco's Modified Eagles medium (DMEM) supplied with […] glucose, Na-pyruvate and GlutaMAX with 10% FBS, 100 U/ml penicillin-streptomycin (PEST) respectively, 1× non-essential amino acids (NEAA), […] Hepes, 100 μg/ml Zeocine. Cells at about 80% confluence were washed with PBS, detached from culture flasks using 1× Trypsin/EDTA diluted in PBS, re-suspended in cell media and plated in 384-well poly-d-lysine coated cell culture plates at about 10000-15000 cells/well, in 25 μL cell media. Optionally, cryo-preserved cells (frozen and stored at −140° C. in 90% cell media and 10% DMSO) were thawed, washed and plated as above. Next the cells were incubated for 15-24 h at 37° C. and 5% CO2, after which cell medium was changed. Fresh medium containing test compound diluted ×200 from prepared compound plate was added to the cells before further incubation for 4-6 hours at 37° C. and 5% CO2. After incubation with test compound the amount of Aβ peptides, including Aβ42, Aβ40, Aβ39, Aβ38 and Aβ37, as well as total Aβ levels, secreted to cell medium was analyzed using the electrochemiluminescence assay technology from Meso Scale Discovery (MSD), in combination with specific antibodies raised against the different Aβ peptides. Aβ42, Aβ40 and Aβ38 antibodies were purchased from MSD and Aβ37 and Aβ39 were made in house. Total Aβ was measured using a combination of 6E10 and 4G8 anti Aβ antibodies from MSD. Potential cytotoxic effects of the compounds were usually assayed by measuring the ATP content (ViaLight) from cell lysate.

[4] = Homo sapiens, HEK293, HEK cells expressing APPswe

Row | SMILES | IC50 ([2]; HEK cells expressing APPswe) [nM] | IC50 [3] [nM] | IC50 [2, 4] [nM] | IC50 ([1]; Homo sapiens) [nM] | IC50 [1] [nM]
1 | COc1nc(Nc2ccc3c(n2)OC(C2CC(F)(F)C2)CN(C)C3)ccc1-c1cnn(C)c1 (single isomer, unassigned) [Example 37, 2-(3,3-Difluorocyclobutyl)-N-(6-methoxy-5-(1-methyl-1H-pyrazol-4-yl)pyridin-2-yl)-4-methyl-2,3,4,5-tetrahydropyrido[3,2-f][1,4]oxazepin-8-amine] | 4 | > 1000 |  | > 25000 | 
2 | COc1nc(Nc2ccc3c(n2)OC(CC(CF)CF)CN(C)C3)ccc1-n1cnc(C)c1 (stereo not drawn) [Example 32, [8-(3-Fluoro-2-fluoromethyl-propyl)-6-methyl-5,6,7,8-tetrahydro-9-oxa-1,6-diaza-benzocyclohepten-2-yl]-[6-methoxy-5-(4-methyl-imidazol-1-yl)-pyridin-2-yl]-amine] |  | > 5000 | 7 | > 7900 | 
3 | COc1nc(Nc2ccc3c(n2)O[C@H](c2ccccc2)CN(C)C3)ccc1-c1cnc(C)o1 [Example 49, (2R)—N-[6-Methoxy-5-(2-methyloxazol-5-yl)-2-pyridyl]-4-methyl-2-phenyl-3,5-dihydro-2H-pyrido[3,2-f][1,4]oxazepin-8-amine] |  | 5460 | 2 | 2170 | 
4 | COc1nc(Nc2ccc3c(n2)OC(CC(CF)CF)CN(C)C3)ccc1-n1cnc(C)c1 (single isomer, unassigned; (+)) [Example 67, (+)-[8-(3-Fluoro-2-fluoromethyl-propyl)-6-methyl-5,6,7,8-tetrahydro-9-oxa-1,6-diaza-benzocyclohepten-2-yl]-[6-methoxy-5-(4-methyl-imidazol-1-yl)-pyridin-2-yl]-amine] |  | > 25000 | 10 |  | 6230
5 | COc1nc(Nc2ccc3c(n2)OC(CCC(F)(F)F)CN(C)C3)ccc1-n1cnc(C)c1 (stereo not drawn) [Example 28, [6-Methoxy-5-(4-methyl-imidazol-1-yl)-pyridin-2-yl]-[6-methyl-8-(3,3,3-trifluoro-propyl)-5,6,7,8-tetrahydro-9-oxa-1,6-diaza-benzocyclohepten-2-yl]-amine] |  | > 1000 | 7 | > 25000 | 

More lines, main results first:

Row | IC50 ([2]; HEK cells expressing APPswe) [nM] | IC50 [3] [nM] | IC50 [2, 4] [nM] | SMILES | IC50 ([1]; Homo sapiens) [nM] | IC50 [1] [nM]
6 | 9 | 512 |  | COc1nc(Nc2ccc3c(n2)OC(CC(F)(F)F)CN(C)C3)ccc1-c1cnn(C)c1 (single isomer, unassigned; (+)) [Example 4, (+)-N-(6-Methoxy-5-(1-methyl-1H-pyrazol-4-yl)pyridin-2-yl)-4-methyl-2-(2,2,2-trifluoroethyl)-2,3,4,5-tetrahydropyrido[3,2-f][1,4]oxazepin-8-amine] | > 25000 | 
7 |  | 8720 | 12 | COc1nc(Nc2ccc3c(n2)OC(CCC(F)(F)F)CN(C)C3)ccc1-c1cnn(C)c1 (stereo not drawn) [Example 27, [6-Methoxy-5-(1-methyl-1H-pyrazol-4-yl)-pyridin-2-yl]-[6-methyl-8-(3,3,3-trifluoro-propyl)-5,6,7,8-tetrahydro-9-oxa-1,6-diaza-benzocyclohepten-2-yl]-amine] | 16300 | 
8 |  | 9470 | 22 | COc1nc(Nc2ccc3c(n2)OC(CC(CF)CF)CN(C)C3)ccc1-c1cnn(C)c1 (stereo not drawn) [Example 31, [8-(3-Fluoro-2-fluoromethyl-propyl)-6-methyl-5,6,7,8-tetrahydro-9-oxa-1,6-diaza-benzocyclohepten-2-yl]-[6-methoxy-5-(1-methyl-1H-pyrazol-4-yl)-pyridin-2-yl]-amine] | > 7900 | 
9 |  | > 1000 | 3 | COc1nc(Nc2ccc3c(n2)OC(CCC(F)(F)F)CN(C)C3)ccc1-n1cnc(C)c1 (single isomer, unassigned; (+)) [Example 61, (+)-[6-Methoxy-5-(4-methyl-imidazol-1-yl)-pyridin-2-yl]-[6-methyl-8-(3,3,3-trifluoro-propyl)-5,6,7,8-tetrahydro-9-oxa-1,6-diaza-benzocyclohepten-2-yl]-amine] | > 25000 | 
